IC50 data for 4 compounds are collected here from patent publication US20230024521A1, “JAK INHIBITORS” (Vimalan Biosciences, Inc., priority 2019, published 2023).

One experiment concerns the target TYK2 (Homo sapiens, UniProt P29597). The experiment in a line: JAK/TYK2 assay (Kinase Glo luminescence): Tyk2 kinase assay. It counts as biochemical. To be noted: 9 nM enzyme, 2 uM ATP, 30 uM IRS-1, 1 hr; read-out: Tyk2 kinase assay: IC50 Geomean. On the procedure:
(§1) Example A: JAK/TYK2 Assay 10 mM test compound stock or 1 mM control compound stock (tofocitinib, ruxolitinib or staurosporine) in DMSO was diluted to 0.4 mM in DMSO. A 3-fold series dilution was then performed in DMSO to generate 10 different compound concentrations. The assay was carried out in 384-well white plate. 0.5 μL of 40× compound DMSO solution at different concentrations was mixed with 10 uL 2× enzyme prepared in reaction buffer (20 mM HEPES, 10 mM MgCl2, 0.01% Tween, 1 mM DTT, pH 7.5). 10 uL 2× substrate mixture prepared in reaction buffer was then added to start the reaction. A short spin was done to settle down all solutions to the bottom of the plate. Final concentrations of test compound in the reaction mixture were 10000, 3333, 1111, 370, 123, 41.2, 13.7, 4.57, 1.52 and 0.51 nM, Concentrations of control compound were ten times less. Enzymatic reaction was conducted at 25° C. for 1-2 hours. 10 uL of Kinase Glo Reagents was added to stop the reaction and generate the luminescent signal which was measured using Envision. Luminescence signal was inversely related to kinase activity. […] The mixture without any compound was the positive control. [table]

A further experiment deals with JAK2 (Homo sapiens, UniProt O60674). The experiment in a line: JAK/TYK2 assay (Kinase Glo luminescence): Jak2 kinase assay. It counts as biochemical. The settings on record: 0.8 nM enzyme, 2 uM ATP, 4 uM pEY, 1 hr; read-out: Jak2 kinase assay: IC50 Geomean. On the procedure:
as §1

The next experiment deals with JAK1 (Homo sapiens, UniProt P23458). The experiment can be described thus: JAK/TYK2 assay (Kinase Glo luminescence): Jak1 kinase assay. In kind it is biochemical. To be noted: 7.5 nM enzyme, 2 uM ATP, 30 uM IRS-1, 1 hr. On the procedure:
as §1
(In Kinase-Glo more light means more ATP remaining.)

Experiment [1] concerns JAK2: GM-CSF stimulated STAT5 phosphorylation. The experiment can be described thus: Co-stimulation assay in lysed whole blood; JAK2: GM-CSF stimulated STAT5 phosphorylation. The settings on record: Homo sapiens, read-out: GMCSF/J2/pS5: GeoMean (nM). In kind it is cell-based, human. On the procedure: Example C: Co-Stimulation Assay in Lysed Whole Blood; JAK2: GM-CSF Stimulated STAT5 Phosphorylation and JAK1/TYK2 Stimulated STAT1 Phosphorylation Assay
Human Blood Lysis using abcam's RBC lysis buffer
Dilute RBC lysis buffer to 1× in distilled water. Add 2 mL blood to 38 mL of 1×RBC-lysis buffer. Incubate for 15 mins at RT, in dark. Spin at 300 g, 5 mins, to collect the pellet. Re-lyse if necessary. Re-suspend pellet in 5 mL of cRPMI.
Aliquot 80 μL of lysed human blood in to wells of 96 deep-well plate. Add 10 μl of (10× conc.) of different concentrations of compounds to all wells except controls (unstained and unstimulated) and mix it with the help of 100 uL multichannel Add 10 uL of RPMI media in controls. For dilution of compounds and dilution range please refer Appendix. Incubate on water bath or CO2 incubator for 1 hour at 37° C. Add 10 μl of (10× conc.) of cytokine mix (GM-CSF and IFNa) (final conc. 10 ng/mL of GM-CSF and 100 ng/mL of IFNa) to each well except unstimulated and unstained controls and incubate further for 20 minutes on water bath at 37° C.
Add 900 μL of prewarmed 1× Fix/Lyse solution (Appendix) and mix it properly using 1000 μl multichannel, incubate further on water bath at 37° C. for 10 minutes (which includes time of addition). Centrifuge at 800×g for 5 minutes at 40° C.; remove 900 uL of supernatant and add 900 μL of 1×PBS. Centrifuge at 800×g for 5 minutes at 40° C., remove 900 μL of supernatant. Wash one more time with 900 μL of PBS (optional) and resuspend pellets in 100 uL of PBS.
Disrupt the pellet by gentle tapping and resuspend in 1000 μL of BD Phosflow Perm Buffer III and incubate plate on ice for 30 minutes. Centrifuge plate at 800×g for 5 minutes at 40° C. Wash two more times with 1000 μL of BD Pharmingen Stain Buffer.
Disrupt the pellet by gentle tapping. Resuspend pellets in 100 uL of Stain Buffer and add 5 μL of pSTAT5_AF488 Ab and 5 uL of pSTAT1_PE in all wells except unstained control and mix properly using 200 μl multichannel, incubate overnight at […]. Add 900 μL of wash buffer and centrifuge at 1800 rpm for 3 minutes at […]. Wash one more time with 1000 μL of BD Pharmingen Stain Buffer. Finally resuspend the pellet in 300 uL of BD Pharmingen Stain Buffer. Transfer the cells to 96-well v-bottom plate and acquire the cells in Beckman Coulter CytExpert. Acquiring cells in Flow Cytometer: Keep the threshold value to 250 and cell concentration should not exceed 100-500 cells/4. Acquire at least 5,000-10,000 cells.
RPMI 1640 Complete Medium: RPMI 1640 media+10% FBS.
Cytokine dilution: 1) GM-CSF Stock at 100 ug/mL. Prepare an intermediate dilution of 1 ug/mL by adding 2 uL of stock into 198 uL of cRPMI. Further dilute to 100 ng/mL by adding 100 uL of the intermediate stock to 900 uL of cRPMI. 2) IFNa Stock at 200 ug/mL. Dilute IFNa stock 1:200 by adding 5 uL of stock into the 1000 uL of 100 ng/mL GM-CSF working stock as above to give a combined working stock of 1000 ng/mL of IFNa and 100 ng/mL GM-CSF (10×). Keep it on ice until used.
Lyse/Fix buffer preparation: Dilute 5× Lyse/Fix buffer to 1× using MQ water and keep at 37° C. until used.
BD Phosflow perm buffer III: Keep on ice/fridge

In a further experiment the target is T1, JAK3 (Homo sapiens, UniProt P52333).
T1 sequence (P52333 1-1124): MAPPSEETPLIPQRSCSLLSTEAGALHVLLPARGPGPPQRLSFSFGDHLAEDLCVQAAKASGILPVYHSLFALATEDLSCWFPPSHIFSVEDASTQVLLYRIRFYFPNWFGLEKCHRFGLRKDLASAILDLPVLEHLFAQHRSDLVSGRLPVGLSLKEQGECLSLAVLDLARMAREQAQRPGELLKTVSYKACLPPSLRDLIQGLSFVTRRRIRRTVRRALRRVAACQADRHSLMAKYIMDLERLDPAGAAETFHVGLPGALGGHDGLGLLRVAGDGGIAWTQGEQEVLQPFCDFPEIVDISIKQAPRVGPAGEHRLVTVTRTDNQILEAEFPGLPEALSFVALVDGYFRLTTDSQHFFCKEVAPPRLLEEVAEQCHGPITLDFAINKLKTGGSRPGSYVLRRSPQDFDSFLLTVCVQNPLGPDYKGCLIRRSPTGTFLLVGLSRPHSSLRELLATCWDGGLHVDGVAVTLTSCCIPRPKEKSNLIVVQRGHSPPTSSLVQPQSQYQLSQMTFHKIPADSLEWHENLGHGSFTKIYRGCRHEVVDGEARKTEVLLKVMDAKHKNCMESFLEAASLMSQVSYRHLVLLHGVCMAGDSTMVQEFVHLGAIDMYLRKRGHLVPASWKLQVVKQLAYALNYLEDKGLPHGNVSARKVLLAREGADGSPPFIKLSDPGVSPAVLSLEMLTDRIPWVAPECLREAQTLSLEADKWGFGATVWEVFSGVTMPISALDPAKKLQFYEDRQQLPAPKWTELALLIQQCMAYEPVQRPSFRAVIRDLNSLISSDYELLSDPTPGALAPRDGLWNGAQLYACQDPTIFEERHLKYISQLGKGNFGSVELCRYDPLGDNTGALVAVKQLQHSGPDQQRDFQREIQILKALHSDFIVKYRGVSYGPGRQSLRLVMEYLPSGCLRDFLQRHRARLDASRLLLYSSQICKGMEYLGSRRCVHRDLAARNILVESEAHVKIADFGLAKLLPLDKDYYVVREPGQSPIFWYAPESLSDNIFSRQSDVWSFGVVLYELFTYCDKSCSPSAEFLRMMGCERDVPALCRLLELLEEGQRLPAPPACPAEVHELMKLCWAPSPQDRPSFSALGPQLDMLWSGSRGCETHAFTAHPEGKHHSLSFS
The experiment can be described thus: JAK/TYK2 assay (Kinase Glo luminescence): Jak3 kinase assay. It counts as biochemical. The settings on record: 1.5 nM enzyme, 2 uM ATP, 4 uM pEY, 1 hr; read-out: Jak3 kinase assay: IC50 Geomean. On the procedure:
as §1

JAK2, sequence (O60674 whole entry, species assumed): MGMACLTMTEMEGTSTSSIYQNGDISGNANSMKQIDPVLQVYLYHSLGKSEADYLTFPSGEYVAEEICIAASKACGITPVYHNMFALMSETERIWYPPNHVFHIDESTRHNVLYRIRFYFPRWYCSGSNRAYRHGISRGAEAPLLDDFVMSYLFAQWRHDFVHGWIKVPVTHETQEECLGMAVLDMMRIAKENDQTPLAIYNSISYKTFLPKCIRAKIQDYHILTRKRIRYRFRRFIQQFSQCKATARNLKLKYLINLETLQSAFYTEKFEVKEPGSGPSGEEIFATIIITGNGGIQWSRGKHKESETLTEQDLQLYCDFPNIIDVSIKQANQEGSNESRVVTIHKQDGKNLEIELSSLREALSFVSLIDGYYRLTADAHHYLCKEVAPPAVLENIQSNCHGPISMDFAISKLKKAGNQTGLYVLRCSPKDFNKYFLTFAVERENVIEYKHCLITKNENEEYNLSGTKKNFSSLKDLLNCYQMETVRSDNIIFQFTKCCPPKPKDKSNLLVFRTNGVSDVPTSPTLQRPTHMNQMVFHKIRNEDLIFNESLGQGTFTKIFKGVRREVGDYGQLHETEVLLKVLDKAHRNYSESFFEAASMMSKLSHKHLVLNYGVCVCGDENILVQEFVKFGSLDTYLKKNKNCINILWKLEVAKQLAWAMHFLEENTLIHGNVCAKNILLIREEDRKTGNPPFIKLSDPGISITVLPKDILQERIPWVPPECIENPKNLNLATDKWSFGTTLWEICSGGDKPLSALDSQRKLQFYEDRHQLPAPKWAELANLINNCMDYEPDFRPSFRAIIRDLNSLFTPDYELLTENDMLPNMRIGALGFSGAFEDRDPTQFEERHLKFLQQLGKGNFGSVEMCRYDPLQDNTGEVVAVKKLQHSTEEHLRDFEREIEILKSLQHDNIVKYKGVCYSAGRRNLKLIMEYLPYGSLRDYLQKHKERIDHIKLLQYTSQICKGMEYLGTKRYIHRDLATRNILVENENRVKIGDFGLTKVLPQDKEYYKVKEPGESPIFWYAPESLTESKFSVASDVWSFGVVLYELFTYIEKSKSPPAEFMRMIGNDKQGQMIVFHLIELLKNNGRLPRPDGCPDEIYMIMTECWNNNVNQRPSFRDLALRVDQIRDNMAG
TYK2, sequence (P29597 whole entry, species assumed): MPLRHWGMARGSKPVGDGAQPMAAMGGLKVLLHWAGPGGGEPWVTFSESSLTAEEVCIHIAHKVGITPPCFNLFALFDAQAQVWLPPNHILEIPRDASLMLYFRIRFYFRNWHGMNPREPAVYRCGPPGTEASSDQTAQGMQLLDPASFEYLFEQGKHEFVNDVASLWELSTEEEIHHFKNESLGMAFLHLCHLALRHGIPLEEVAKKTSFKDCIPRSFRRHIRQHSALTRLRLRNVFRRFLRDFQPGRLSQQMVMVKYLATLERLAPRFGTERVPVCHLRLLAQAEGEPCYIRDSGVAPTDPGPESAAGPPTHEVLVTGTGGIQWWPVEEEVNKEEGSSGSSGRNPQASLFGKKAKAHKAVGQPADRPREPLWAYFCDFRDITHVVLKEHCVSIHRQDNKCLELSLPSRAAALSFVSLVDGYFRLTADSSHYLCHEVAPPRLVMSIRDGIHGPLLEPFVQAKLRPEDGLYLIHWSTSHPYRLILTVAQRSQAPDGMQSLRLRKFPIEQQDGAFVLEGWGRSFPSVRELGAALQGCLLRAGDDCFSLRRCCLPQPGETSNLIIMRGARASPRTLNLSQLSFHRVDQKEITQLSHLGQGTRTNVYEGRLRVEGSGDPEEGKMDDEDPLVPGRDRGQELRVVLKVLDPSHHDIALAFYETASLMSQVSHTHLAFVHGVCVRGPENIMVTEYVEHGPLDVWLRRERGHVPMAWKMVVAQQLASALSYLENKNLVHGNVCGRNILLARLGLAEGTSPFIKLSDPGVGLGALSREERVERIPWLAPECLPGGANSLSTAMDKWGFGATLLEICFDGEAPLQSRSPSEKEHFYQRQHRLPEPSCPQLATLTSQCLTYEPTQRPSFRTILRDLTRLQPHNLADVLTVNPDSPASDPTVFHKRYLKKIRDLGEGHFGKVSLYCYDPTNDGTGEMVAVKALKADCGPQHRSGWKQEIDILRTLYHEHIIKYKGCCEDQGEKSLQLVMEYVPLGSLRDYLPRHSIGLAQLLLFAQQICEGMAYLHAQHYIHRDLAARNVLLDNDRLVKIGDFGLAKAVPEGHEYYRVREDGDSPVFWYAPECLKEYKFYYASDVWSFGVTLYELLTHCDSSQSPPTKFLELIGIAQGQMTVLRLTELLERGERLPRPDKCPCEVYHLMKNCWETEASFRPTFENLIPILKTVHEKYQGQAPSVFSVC
JAK1, sequence (P23458 whole entry, species assumed): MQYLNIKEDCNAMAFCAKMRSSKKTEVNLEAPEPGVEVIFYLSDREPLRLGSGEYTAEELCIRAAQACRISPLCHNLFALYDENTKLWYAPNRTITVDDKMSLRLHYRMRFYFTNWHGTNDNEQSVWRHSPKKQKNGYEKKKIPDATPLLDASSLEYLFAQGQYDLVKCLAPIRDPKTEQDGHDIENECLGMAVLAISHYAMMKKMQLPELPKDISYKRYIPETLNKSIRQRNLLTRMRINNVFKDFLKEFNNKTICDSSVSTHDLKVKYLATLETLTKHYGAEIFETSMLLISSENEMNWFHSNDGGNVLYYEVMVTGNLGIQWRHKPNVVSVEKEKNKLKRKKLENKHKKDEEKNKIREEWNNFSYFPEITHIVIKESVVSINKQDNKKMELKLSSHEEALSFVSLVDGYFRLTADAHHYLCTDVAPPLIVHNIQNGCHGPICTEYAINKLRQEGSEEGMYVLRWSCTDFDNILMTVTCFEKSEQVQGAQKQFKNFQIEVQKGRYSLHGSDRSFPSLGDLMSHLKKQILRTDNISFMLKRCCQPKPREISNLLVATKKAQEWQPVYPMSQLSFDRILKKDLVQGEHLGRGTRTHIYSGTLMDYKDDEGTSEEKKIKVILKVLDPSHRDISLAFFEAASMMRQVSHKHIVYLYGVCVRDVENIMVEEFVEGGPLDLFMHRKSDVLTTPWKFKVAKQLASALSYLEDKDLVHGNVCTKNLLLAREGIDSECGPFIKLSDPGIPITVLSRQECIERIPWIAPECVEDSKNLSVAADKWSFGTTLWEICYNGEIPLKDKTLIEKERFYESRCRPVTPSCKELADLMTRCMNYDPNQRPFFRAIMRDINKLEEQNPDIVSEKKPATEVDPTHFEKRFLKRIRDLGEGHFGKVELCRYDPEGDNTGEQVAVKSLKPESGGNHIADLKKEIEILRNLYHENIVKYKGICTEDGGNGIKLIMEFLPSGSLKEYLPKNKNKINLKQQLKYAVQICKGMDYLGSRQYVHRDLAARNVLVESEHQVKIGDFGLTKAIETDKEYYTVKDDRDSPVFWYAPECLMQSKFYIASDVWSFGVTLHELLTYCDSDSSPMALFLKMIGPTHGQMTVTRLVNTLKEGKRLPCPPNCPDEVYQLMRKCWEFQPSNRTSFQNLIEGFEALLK

Regarding `CC[C@H](Cn1ccc2cnc(Nc3cnn(CC(=O)Nc4ccncc4)c3)nc21)C(C)C` [Example 2, (5)-2-(4-((7-(2-ethyl-3-methylbutyl)-7H-pyrrolo[2,3-d]pyrimidin-2-yl)amino)-1H-pyrazol-1-yl)-N-(pyridin-4-yl) acetamide], the IC50 at TYK2 was below 100 nM; on JAK2, below 100 nM; against JAK1, below 100 nM; in experiment [1] it was 1000 to 10000 nM; on JAK3, below 100 nM.

`CCC(CC)Cn1ccc2cnc(Nc3cnn(CC(=O)NC)c3)nc21` [Example 6, 2-(4-((7-(2-ethylbutyl)-7H-pyrrolo[2,3-d]pyrimidin-2-yl)amino)-1H-pyrazol-1-yl)-N-methylacetamide]: the IC50 was below 100 nM at TYK2; below 100 nM at JAK2; below 100 nM at JAK1; 100 to 1000 nM in experiment [1]; below 100 nM at JAK3.

In the case of `CC[C@H](Cn1ccc2cnc(Nc3cnn(CC(=O)N(C)S(C)(=O)=O)c3)nc21)C(C)C` [Example 4, (5)-2-(4-((7-(2-ethyl-3-methylbutyl)-7H-pyrrolo[2,3-d]pyrimidin-2-yl)amino)-1H-pyrazol-1-yl)-N-methyl-N-(methylsulfonyl) acetamide], the IC50 is below 100 nM on TYK2; below 100 nM at JAK2; below 100 nM on JAK1; 100 to 1000 nM in experiment [1]; below 100 nM on JAK3.

Take `CCC(CC)Cn1ccc2cnc(Nc3cnn(CC(=O)N(C)C)c3)nc21` [Example 5, 2-(4-((7-(2-ethylbutyl)-7H-pyrrolo[2,3-d]pyrimidin-2-yl)amino)-1H-pyrazol-1-yl)-N, N-dimethylacetamide]: the IC50 on TYK2 is below 100 nM; at JAK2, below 100 nM; against JAK1, below 100 nM; in experiment [1], 1000 to 10000 nM; at JAK3, below 100 nM.
